From PubChem BioAssay AID179 (DTP/NCI, 2004)
Several values for one entry are separate records, joined by “and”; a condition that tells them apart may be missing. Identical values can stand only once. Activity calls are given as the source filed them.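 The calls were made as follows: active = compounds giving half or more protection of infected cells from virus-caused growth loss, again on retest; inactive = the rest.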

System: CEM cells HIV-1 protection, formazan growth assay
Assay: NCI AIDS Antiviral Assay
Conditions: for IC50: measured here: growth of uninfected CEM cells
In short: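 Protection of CEM cells against HIV-1 was scored from cell growth (soluble formazan) across five concentrations, with parallel uninfected cells. Lack of protection may reflect toxicity.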

Compound	EC50	IC50	outcome
O=C1CN(N2CCOCC2)CC(=O)N2CCCCN12	19.1 µM	> 200 µM	
CC(=O)OCC1OC(n2c(=S)n(-c3ccccc3)c(=S)c3ccccc32)C(OC(C)=O)C(OC(C)=O)C1OC(C)=O (stereo not given)	> 16.6 µM	> 16.6 µM	
COc1cc(N2C(=O)C(=O)C3(CCCCC3)C2=O)cc(OC)c1OC	> 200 µM	> 200 µM	
COc1c(C)c(C/C=C(\C)CCCCO)c(OC)c(OC)c1OC	> 200 µM	26.3 µM	
O=S(=O)(Nc1nc2ccccc2nc1Nc1cccc2ccccc12)c1ccccc1	> 200 µM	15.8 µM	
C[N+](C)(C)CC(=O)N/N=C/c1oc(-c2cccc([N+](=O)[O-])c2)c(-c2cccc([N+](=O)[O-])c2)c1[N+](=O)[O-]	> 9.77 µM	> 9.77 µM	
CCOC(=O)/C=C/[C@H](O[Si](c1ccccc1)(c1ccccc1)c1ccccc1)C(C)(C)C	> 200 µM	> 200 µM	
COc1ccc(N2C(=O)C3CSCN3C2=O)cc1 (stereo not given)	> 200 µM	> 200 µM	
Cc1noc(C)c1N=Nc1ccc2nonc2c1N	> 200 µM	> 200 µM	
CCOP(=O)(CC(=O)NC(C(N)=O)C(C)C)OCC (stereo not given)	> 100 µM	52.5 µM	
COc1ccc2[nH]c3c(C)c4ccnc(NCCCN(C)CCCNC(=O)NCCCN(C)CCCNc5nccc6c(C)c7[nH]c8ccc(OC)cc8c7c(C)c56)c4c(C)c3c2c1	> 5.01 µM	0.891 µM	
Oc1c(Cl)ccc2cccnc12	> 20 µM	0.676 µM	
FC(F)(F)c1cccc(N2NC(=S)N3C=CC=CC32)c1 (stereo not given)	> 83.2 µM	> 83.2 µM	
COc1ccc(C2(CN(C)C)COc3cc(OC)c(OC)cc3C2=O)cc1OC (stereo not given)			inactive
COc1c(O)cc2oc(-c3ccc(O)c(O)c3)cc(=O)c2c1O	> 38 µM	22.9 µM	
N#Cc1cc2cccn2c2c1cnn2-c1ccccc1	> 200 µM	43.7 µM	
COc1cc(Nc2cnc3ccc(C(F)(F)F)cc3n2)cc(OC)c1OC	> 35.5 µM	6.92 µM	
c1ccc(-c2cnc3cccnc3n2)cc1	> 200 µM	174 µM	
CC(C)(C)C(=O)OCC1CCC(n2cnc3c(=O)[nH]c(N)nc32)O1 (stereo not given)	> 15.5 µM	> 15.5 µM	
Cc1ccsc1/C=N/Nc1cc(C)c2ccccc2n1	> 200 µM	5.37 µM	
COC(=O)[C@](C)(Cc1ccccc1)NC(=O)[C@@H](C)N1[C@@H](c2ccccc2)COC1(C)C	> 200 µM	> 200 µM	
CCCCCCc1cn([C@H]2C[C@H](O)[C@@H](CO)O2)c(=O)[nH]c1=O			inactive
Nc1o[nH]c(=O)c1-c1ccccc1	> 200 µM	> 200 µM	

Compound	EC50	IC50	outcome
O=C1c2cccc([N+](=O)[O-])c2C(=O)c2c1oc1ccc3ccccc3c21	> 200 µM	> 200 µM	
CCCCC(C)CCCC1=C(O)/C(=C/C(=O)O)OC1=O (stereo not given)	174 µM	447 µM	
CC(C)(C)c1cc(CCC(=O)Nc2ccc(Cl)cc2Cl)nc(N)n1	> 135 µM	> 135 µM	
CCOP(=O)(OCC)C(=Cc1ccccc1)P(=O)(OCC)OCC	> 661 µM	398 µM	
CN(C)CCCCN1CCc2c(n(C)c3ccccc23)C1=O	> 603 µM	43.7 µM and 72.4 µM	
COCn1cc(C2=C(C)C(=O)C(C)=C(C)C2=O)cn1	> 200 µM	6.03 µM	
Nc1nc2c(ncn2C2C=CC(CO)CC2)c(=O)[nH]1 (stereo not given)	> 200 µM	> 200 µM	
Cc1ccc(S(=O)(=O)c2ccc(NC(=O)SCCC(=O)O)cc2)cc1			inactive
CN(C)c1cc(CN(CCSS(=O)c2ccccc2[N+](=O)[O-])S(=O)c2ccccc2[N+](=O)[O-])nc(CN(CCSS(=O)c2ccccc2[N+](=O)[O-])S(=O)c2ccccc2[N+](=O)[O-])c1 (stereo not given)	> 100 µM	> 100 µM	
CC1(O)[C@@H]2O[C@@H]2C2(CCCO2)[C@@H]2O[C@@H]21 (stereo not given in full)	> 200 µM	> 200 µM	
COC1=CC(=O)C2C(C1=O)C(c1ccccc1)[C@H]2C (stereo not given in full)	> 372 µM	22.9 µM	
O=[N+]([O-])c1cc2c(c3nonc13)OCCCCO2	> 200 µM	1.15 µM	
COc1ccc(NC2CC(C)N(C(=O)c3ccccc3)O2)cc1 (stereo not given)	> 200 µM	95.5 µM	
O=C1OC(c2ccccc2)=N/C1=C\c1ccc(Br)cc1	> 4.37 µM	> 4.37 µM	
CCCNC(C#N)c1ccc(C(C#N)NCCC)cc1 (stereo not given)	> 200 µM	38.9 µM	
Nc1ncnc2nc(-c3ccc(C[P+](c4ccccc4)(c4ccccc4)c4ccccc4)cc3)[nH]c12	> 200 µM	> 200 µM	
Cc1ncc2c(n1)-c1ccccc1OC2O (stereo not given)	> 200 µM	> 200 µM	
CNC(=O)CCCC=C(c1cc(Cl)c(OC)c(C(=O)NC)c1)c1cc(Cl)c(OC)c(C(=O)NC)c1	> 200 µM	38.9 µM	
CC(=O)OC(C(=O)NNC(=O)OC(C)(C)C)c1ccccc1 (stereo not given)	> 200 µM	> 200 µM	
COc1cccc(C(=O)C2C(=O)N(C)CCc3ccccc32)c1OC (stereo not given)	> 148 µM	> 148 µM	
C=CCCCN1C(=O)CCCC1=O			inactive
CCc1cccc(C)c1NC(C)=O			inactive
O=C(Nc1nc2ccc([N+](=O)[O-])cc2s1)C(=O)C(C1OC(=O)c2ccccc21)[N+](=O)[O-] (stereo not given)	> 81.3 µM	51.3 µM	

Compound	EC50	IC50	outcome
COc1cc(Br)c(C=Nc2cccc3ccc(OS(=O)(=O)c4cccc([N+](=O)[O-])c4)cc23)cc1OC			inactive
CCOP(=O)(OCC)c1cc(-c2ccccc2)ccc1N	> 200 µM	> 200 µM	
C(=C1\CCC/C(=C/c2ccccc2)C1=NNc1ccccc1)/c1ccccc1	> 14.5 µM	> 14.5 µM	
O=C(O)c1cc2c(ncc3c(=O)n(-c4ccccc4)[nH]c32)s1	> 115 µM	> 115 µM	
CCCS(=O)(=O)O	> 200 µM	> 200 µM	
COc1cc(O)c2c(=O)c(OC)c(-c3ccc4c(c3)OCO4)oc2c1	> 200 µM	> 200 µM	
O=C1CC2CCCC(=O)C23CCC[C@H]13 (stereo not given in full)	> 324 µM	> 324 µM	
N#Cc1c(C#N)c(-c2ccccc2)n(Cc2ccccc2)c1N	> 200 µM	> 200 µM	
NCCCNCCCCNC(=O)C(O)NC(=O)CCCCCCN=C(N)N (stereo not given)	288 µM	501 µM	
CCCCCCCCOCC(O)COC(C)C (stereo not given)	> 200 µM	115 µM	
CCCCCCCCCCCCCCCCCCOC(COP(=O)(O)OCC1OC(n2cc(C)c(=O)[nH]c2=O)CC1N=[N+]=[N-])COP(=O)(O)OC1CC(n2cc(C)c(=O)[nH]c2=O)OC1CO (stereo not given)	0.17 µM	30.9 µM	
CN(C)C1C(=O)C(C(=O)NCN2CCCC2)=C(O)C2(O)C(=O)C3=C(O)c4c(O)cccc4C(C)(O)C3CC12 (stereo not given)	> 63.1 µM	53.7 µM	
O=S(=O)(O)c1ccc2cc(N=Nc3cc(S(=O)(=O)O)c4cccnc4c3O)ccc2c1	24 µM	> 100 µM	
C/C=C/CC(C)C(O)C1C(=O)NC(CC)C(=O)N(C)CC(=O)N(C)C(CC(C)C)C(=O)NC(C(C)C)C(=O)N(C)C(CC(C)C)C(=O)NC(C)C(=O)NC(C)C(=O)N(C)C(CC(C)C)C(=O)N(C)C(CC(C)C)C(=O)N(C)C(C(C)C)C(=O)N1C (stereo not given)	3.39 µM	8.13 µM	
COc1ccccc1/C=C(\NC(=O)c1ccccc1)c1nc2ccccc2[nH]1	> 97.7 µM	47.9 µM	
CNS(=O)(=O)NNS(=O)(=O)c1ccc2ccccc2c1	> 575 µM	170 µM	
Cc1cnc(C)c(-c2cc3ccccc3[nH]2)n1	> 32.4 µM	> 32.4 µM	
C#CCOCn1cnc2c(Cl)ncnc21	> 1120 µM	79.4 µM	
COc1ccc(Br)c(C(=O)N2CCc3ccccc32)c1N			inactive
CCOC(=O)Cc1csc(Nc2ccc(OCC)cc2)n1	> 214 µM	145 µM	
O=C(NNC1=NCCCCN1)Nc1ccc(Cl)cc1	107 µM	> 200 µM	
O=C1/C(=C/c2cccc([N+](=O)[O-])c2)Sc2scc(-c3ccc([N+](=O)[O-])cc3)[n+]21	> 200 µM	38 µM	
O=C1CC(c2ccccc2)n2cccc21 (stereo not given)			inactive

Compound	EC50	IC50	outcome
c1cc2c(cc1NC1=NCCO1)OCO2	> 200 µM	58.9 µM	
NS(=O)(=O)c1ccccc1[N+](=O)[O-]			inactive
CC(=O)C1C(=O)OC2C3C=CC(C3)C2C1=O (stereo not given)	> 309 µM	> 309 µM	
O=c1c2ccc(Cl)cc2oc2c(CSc3ccccc3)cccc12	> 200 µM	9.77 µM	
Oc1cc(Cl)cc2cc(Br)cnc12			inactive
CC(C)(Oc1ccc2c(=O)cc(-c3ccccc3)oc2c1)C(=O)N1CCN(c2ccccc2)CC1	> 200 µM	20.9 µM	
O=C1CC(Cc2n[nH]c3c2CCCC3)CC(=O)N1	> 200 µM	> 200 µM	
Cc1cc2c(C)nn(Cc3ccccc3)c2c(C(N)=O)c1C			inactive
[O-]c1c2c(nn1-c1ccccc1)c1ccccc1c[n+]2Cc1ccccc1			inactive
Brc1ccc(N2N=NC3C4CC(C5CCCC54)C32)cc1 (stereo not given)	> 5.62 µM	> 5.62 µM	
O=C1C(I)=CC(=C(c2cc(I)c(O)c(I)c2)c2ccccc2C(=O)O)C=C1I			inactive
C[C@]12CCC3C(CC[C@H]4C/C(=C/C#N)CC[C@]34C)C1CC/C2=C\C#N (stereo not given in full)	> 100 µM	25.7 µM	
CCOC(=O)c1c2ccccc2n2c(=O)n(-c3ccccc3)nnc12	> 200 µM	35.5 µM	
CC(C)(C)OC(=O)NCC(=O)NC1c2ccsc2/C(=N/O)[C@H]1O (stereo not given in full)	> 200 µM	> 200 µM	
COc1c2c(c3ccccc3c1O)C1C=CC2C1 (stereo not given)	> 110 µM	10 µM	
O=C1NC(=O)C2C1c1[nH]c3ccccc3c1C1CCCC12 (stereo not given)			inactive
C=CCc1cc(OC)c2c(c1)C(OC(C)=O)CC(c1ccc(OC)c(OC)c1)O2 (stereo not given)	> 46.8 µM	> 46.8 µM	
c1ccc2c(c1)OCOc1ccccc1OCO2			inactive
CSc1cnc2ccccc2c1Sc1c[nH]c2ccccc2c1=O	> 14.8 µM	13.2 µM	
CC(=O)CC12NC(=O)N(C)N=C1N(C)C(=O)N(C)C2=O (stereo not given)	> 200 µM	10.7 µM	
N#Cc1nc(-c2cnccn2)oc1N	> 200 µM	182 µM	
